{"source": "the supplement of paper PMC6045584", "note": "± gives the standard deviation of the averaged measurements.", "data": [{"compound": "CN1CC[C@H](c2c(O)cc(O)c3c(=O)cc(-c4ccccc4Cl)oc23)[C@H](O)C1 [FLAVOPIRIDOL]", "assay": "surviving fraction relative to DMSO-only wells; higher = less growth inhibition", "conditions": "0.5 nM; exposure time: 5 days", "in_short": "(§1)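 Log-phase tumour cells were seeded at 250–500 per well in 384-well plates and, from 24 hours after seeding, exposed continuously for five days to inhibitors at 0.5, 1, 5, 10, 50, 100, 500 and 1000 nM. Surviving fraction is CellTiter-Glo luminescence normalised to the median of DMSO-only wells. Luminescence was measured after 10 minutes at room temperature, and only lines screened three times with replicate Pearson r >0.7 and median Z' >0.3 were kept.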", "values": [{"test system": "SCC36 HEADNECK", "surviving fraction": "0.982 ± 0.1"}, {"test system": "OS25HAL BONE", "surviving fraction": "1.01 ± 0.035"}, {"test system": "HCC1806 BREAST", "surviving fraction": "0.833 ± 0.14"}, {"test system": "HU09 BONE", "surviving fraction": "1.06 ± 0.12"}, {"test system": "SG43 HEADNECK", "surviving fraction": "1.04 ± 0.084"}, {"test system": "U2OS BONE", "surviving fraction": "1.04 ± 0.049"}, {"test system": "HOSMNG BONE", "surviving fraction": "0.977 ± 0.05"}, {"test system": "CASKI CERVIX", "surviving fraction": "0.918 ± 0.045"}, {"test system": "SUM44 BREAST", "surviving fraction": "1.14 ± 0.35"}, {"test system": "MDAMB231 BREAST", "surviving fraction": "0.99 ± 0.022"}, {"test system": "CAL51 BREAST", "surviving fraction": "1.02 ± 0.065"}, {"test system": "MDAMB436 BREAST", "surviving fraction": "0.998 ± 0.042"}, {"test system": "HSSYII SYNOVIAL", "surviving fraction": "0.999 ± 0.021"}, {"test system": "RDES SOFT TISSUE", "surviving fraction": "1.36 ± 0.11"}, {"test system": "MDAMB157 BREAST", "surviving fraction": "0.999 ± 0.025"}, {"test system": "CHLA90 AUTONOMIC GANGLIA", "surviving fraction": "0.987 ± 0.1"}, {"test system": "CADOES1 SOFT TISSUE", "surviving fraction": "0.844 ± 0.099"}, {"test system": "SG31 HEADNECK", "surviving fraction": "1.51 ± 0.26"}, {"test system": "SCC47 HEADNECK", "surviving fraction": "1.18 ± 0.052"}, {"test system": "S68 BREAST", "surviving fraction": "1.18 ± 0.31"}, {"test system": "SNU475 LIVER", "surviving fraction": "1.05 ± 0.041"}, {"test system": "22RV1 PROSTATE", "surviving fraction": "1.04 ± 0.12"}, {"test system": "SG32 HEADNECK", "surviving fraction": "1.14 ± 0.2"}, {"test system": "SCC003 HEADNECK", "surviving fraction": "1.06 ± 0.061"}, {"test system": "JURKAT HAEMATOPOIETIC AND LYMPHOID TISSUE", "surviving fraction": "1.04 ± 0.018"}, {"test system": "HT1080 SOFT TISSUE", "surviving fraction": "1.05 ± 0.027"}, {"test system": "CAL120 BREAST", "surviving fraction": "0.971 ± 0.055"}, {"test system": "MCF7 BREAST", "surviving fraction": "0.982 ± 0.083"}, {"test system": "MFM223 BREAST", "surviving fraction": "1.45 ± 0.57"}, {"test system": "LNCAP PROSTATE", "surviving fraction": "0.884 ± 0.014"}, {"test system": "PCI30 HEADNECK", "surviving fraction": "1.02 ± 0.019"}, {"test system": "OSHN BONE", "surviving fraction": "1.08 ± 0.018"}, {"test system": "SG28 HEADNECK", "surviving fraction": "1.11 ± 0.096"}, {"test system": "HOS BONE", "surviving fraction": "1.02 ± 0.018"}, {"test system": "HUO3N1 BONE", "surviving fraction": "1.07 ± 0.016"}, {"test system": "BT20 BREAST", "surviving fraction": "1.21 ± 0.073"}, {"test system": "SJSA1 BONE", "surviving fraction": "0.135 ± 0.0078"}, {"test system": "JIMT1 BREAST", "surviving fraction": "1 ± 0.012"}, {"test system": "HCC78 LUNG", "surviving fraction": "1.08 ± 0.18"}, {"test system": "NY BONE", "surviving fraction": "0.984 ± 0.015"}, {"test system": "NOS1 BONE", "surviving fraction": "1.25 ± 0.046"}]}, {"compound": "CN1CC[C@H](c2c(O)cc(O)c3c(=O)cc(-c4ccccc4Cl)oc23)[C@H](O)C1 [FLAVOPIRIDOL]", "assay": "surviving fraction relative to DMSO-only wells; higher = less growth inhibition", "conditions": "1 nM; exposure time: 5 days", "in_short": "as §1", "values": [{"test system": "SCC36 HEADNECK", "surviving fraction": "0.974 ± 0.062"}, {"test system": "OS25HAL BONE", "surviving fraction": "0.996 ± 0.058"}, {"test system": "HCC1806 BREAST", "surviving fraction": "0.959 ± 0.059"}, {"test system": "HU09 BONE", "surviving fraction": "1.08 ± 0.037"}, {"test system": "SG43 HEADNECK", "surviving fraction": "1.18 ± 0.081"}, {"test system": "U2OS BONE", "surviving fraction": "1.03 ± 0.042"}, {"test system": "HOSMNG BONE", "surviving fraction": "0.991 ± 0.049"}, {"test system": "CASKI CERVIX", "surviving fraction": "0.969 ± 0.031"}, {"test system": "SUM44 BREAST", "surviving fraction": "1.17 ± 0.16"}, {"test system": "MDAMB231 BREAST", "surviving fraction": "0.9902 ± 0.0098"}, {"test system": "CAL51 BREAST", "surviving fraction": "0.983 ± 0.092"}, {"test system": "MDAMB436 BREAST", "surviving fraction": "0.991 ± 0.071"}, {"test system": "HSSYII SYNOVIAL", "surviving fraction": "0.993 ± 0.025"}, {"test system": "RDES SOFT TISSUE", "surviving fraction": "1.3 ± 0.12"}, {"test system": "MDAMB157 BREAST", "surviving fraction": "0.921 ± 0.096"}, {"test system": "CHLA90 AUTONOMIC GANGLIA", "surviving fraction": "1 ± 0.12"}, {"test system": "CADOES1 SOFT TISSUE", "surviving fraction": "0.924 ± 0.062"}, {"test system": "SG31 HEADNECK", "surviving fraction": "1.23 ± 0.055"}, {"test system": "SCC47 HEADNECK", "surviving fraction": "1.2 ± 0.061"}, {"test system": "S68 BREAST", "surviving fraction": "0.847 ± 0.12"}, {"test system": "SNU475 LIVER", "surviving fraction": "1 ± 0.032"}, {"test system": "22RV1 PROSTATE", "surviving fraction": "0.928 ± 0.16"}, {"test system": "SG32 HEADNECK", "surviving fraction": "1.28 ± 0.092"}, {"test system": "SCC003 HEADNECK", "surviving fraction": "1.1 ± 0.083"}, {"test system": "JURKAT HAEMATOPOIETIC AND LYMPHOID TISSUE", "surviving fraction": "1.07 ± 0.046"}, {"test system": "HT1080 SOFT TISSUE", "surviving fraction": "1.05 ± 0.02"}, {"test system": "CAL120 BREAST", "surviving fraction": "0.972 ± 0.029"}, {"test system": "MCF7 BREAST", "surviving fraction": "0.973 ± 0.031"}, {"test system": "MFM223 BREAST", "surviving fraction": "1.45 ± 0.64"}, {"test system": "LNCAP PROSTATE", "surviving fraction": "0.917 ± 0.0082"}, {"test system": "PCI30 HEADNECK", "surviving fraction": "1.02 ± 0.038"}, {"test system": "OSHN BONE", "surviving fraction": "1.08 ± 0.022"}, {"test system": "SG28 HEADNECK", "surviving fraction": "1.1 ± 0.023"}, {"test system": "HOS BONE", "surviving fraction": "1.03 ± 0.011"}, {"test system": "HUO3N1 BONE", "surviving fraction": "1 ± 0.022"}, {"test system": "BT20 BREAST", "surviving fraction": "1.16 ± 0.022"}, {"test system": "SJSA1 BONE", "surviving fraction": "0.272 ± 0.042"}, {"test system": "JIMT1 BREAST", "surviving fraction": "1.01 ± 0.033"}, {"test system": "HCC78 LUNG", "surviving fraction": "0.94 ± 0.032"}, {"test system": "NY BONE", "surviving fraction": "0.977 ± 0.017"}, {"test system": "NOS1 BONE", "surviving fraction": "1.19 ± 0.054"}]}]}
